In ChEMBL document CHEMBL1146404, “Antihyperglycemic activity of phenolics from Pterocarpus marsupium” (1997):

Columns and labels:
Format in all cases: functional
Rattus norvegicus [1] = assay: Antihyperglycemic activity in streptozotocin-induced nonfasted diabetic rat assessed as decrease in blood glucose level at 30 mg/kg, po administered for 3 days measured 1 hr after last dose; parameters: scale not given: the % may be the effect or the level left
Rattus norvegicus [2] = assay: Antihyperglycemic activity in streptozotocin-induced nonfasted diabetic rat assessed as decrease in blood glucose level at 20 mg/kg, po administered for 3 days measured 1 hr after last dose; parameters: scale not given: the % may be the effect or the level left
Rattus norvegicus [3] = assay: Effect on nondiabetic rat assessed as blood glucose level per 100 mL at 20 mg/kg, po
Rattus norvegicus [4] = species on record: Rattus norvegicus; assay: Decrease in body weight in nondiabetic rat; parameters: scale not given: the % may be the effect or the level left

| SMILES | Activity (Rattus norvegicus [1]) [%] | Activity (Rattus norvegicus [2]) [%] | Activity (Rattus norvegicus [3]) [%] | Activity (Rattus norvegicus [4]) [%] |
| --- | --- | --- | --- | --- |
| CN(C)C(=N)NC(=N)N [METFORMIN] | 48 | – | – | – |
| COc1cc(/C=C/c2ccc(O)cc2)cc(OC)c1 [PTEROSTILBENE] | – | 11 | 65 | 20 |
| COc1cc(O)cc2c1C(=O)C(O)(Cc1ccc(O)cc1)O2 (configuration not stated) [CARPUSIN] | – | 33 | 64 | 20 |
